Patent publication US20070238745A1, “PI3K-Akt Pathway Inhibitors” (UNIVERSITY OF SOUTH FLORIDA, priority 2006, published 2007)
“Also recorded” adds a separate entry of the source. Where two headings read alike, the source gives them in different places.

Columns and labels:
[1] = system: LNCaP cells; conditions: cited from earlier work
[2] = cited from earlier work
[3] = system: Bim; test: Amounts of Bim in LNCaP and PC3 cells; format: cell-based, human
Excerpt: How AKT inhibitors facilitate the mitochondria-dependent apoptosis of prostate cancer cells remains to be determined. Potential mechanisms include accumulation of the BH3-only protein Bim and dephosphorylation and activation of Bad. The FOXO factors activate the Bim promoter, and AKT phosphorylates Bim, which may prevent its degradation.

[4] = system: LNCaP cells; test: PARP cleavage by Western blotting in LNCaP cells; format: cell-based, human
Experimental: Cell lysates were analysed for PARP cleavage by Western blotting. […] Lysates were analysed by Western blotting. […] Lysates were analysed by Western blotting. In FIG. 1D LNCaP cells were transfected with pcDNA3 (vector) or pcDNA3 encoding dn-AKT plasmid. […] Lysates were analysed by Western blotting.
(§1) Prostate cancer cell lines used in our studies include LNCaP, LNCaP-Rf, PC3 and PC3-MM2. […] LNCaP cells and PC3 cells were derived from a lymph node metastasis and a bone metastasis, respectively, of human prostate tumors. All these cell lines express constitutively active AKT. To distinguish the effects of our therapeutics between normal and tumor cells, we also used an immortalized but non-tumorigenic prostate epithelial cell line, RWPE, in our study. All experiments were performed on growing cells in medium containing 10% fetal calf serum.
Apoptosis was monitored by cleavage of the caspase-3 substrate poly (ADP-ribose) polymerase (PARP).

[5] = system: LNCaP, LAPC4 and LAPC9; conditions: most prostate cancer cell lines, including LNCaP; cited from earlier work
[6] = system: PC3 cells; test: Cell growth by trypan-blue exclusion, PC3; format: cell-based, human; conditions: 72 hr
Experimental: (§2) FIG. 3 is a series of graphs illustrating the effects of drugs on growth potential of prostate cancer cells. Cells were treated with various inhibitors for 72 hrs and cell growth was enumerated by trypan-blue exclusion.
as §1
(§3) Further, effects of the combination treatment in altering colony formation potential were examined. For this purpose, cells were exposed to drugs for 24 or 46 hrs and trypsinized. Ten thousand viable cells were replated and allowed to grow colonies for 2 weeks.

[7] = system: PC3 cells; test: Apoptosis of PC3 cells (DNA fragmentation Cell Death ELISA, Tunel); format: cell-based, human; conditions: 20 mM LY, 20 mM API-2, 50 mM roscovitine or combination for 14 hr (ELISA); 40 hrs (Tunel)
Experimental: Tunel positive cells are shown. […] Cells were incubated with Hoechest stain for 5 mins and examined using a fluorescent microscope. […] Amounts of cytosolic histone associated DNA fragments were measured.
as §1

[8] = system: PC3-MM2 cells; test: Cell growth by trypan-blue exclusion, PC3-MM2; format: cell-based, human; conditions: 72 hr
Experimental: as §2, §1, §3

[9] = system: XIAP; conditions: LNCaP, LNCaP-Rf, and PC3 cells; cited from earlier work
[10] = cited from earlier work; remark: listed apart in the source
[11] = system: Bcl-2; test: Western blotting: Bcl-2 expression in PC3 cells; conditions: longer exposure (20 hrs)
Experimental: (§5) Lysates were analysed by Western blotting. […] Cells were exposed to drugs for 20 hrs. Lysates were analysed by Western blotting.

[12] = system: Cdk7/Cdk9; test: Western blotting: phosphorylation of RNA-Pol II in PC3 cells; conditions: short-term exposure (8 hrs)
Experimental: as §5

[13] = system: PC3 and DU145 cells; conditions: cited from earlier work
[14] = system: p53; conditions: LNCaP and LNCaP-Rf cells; cited from earlier work
[15] = system: HTLV-I transformed T cell lines (MT-2); conditions: cited from earlier work
[16] = system: LNCaP, LNCaP-Rf; conditions: LNCaP-Rf prostate cancer cells, roscovitine alone; cited from earlier work
[17] = system: XIAP; conditions: PC3 cells, longer exposure (20 hrs), single agent
Experimental: (§4) Lysates were analysed by Western blotting. […] Lysates were analysed by Western blotting.

[18] = system: Bim; conditions: PC3 cells, 8 hrs; roscovitine in either the presence or absence of API-2
Experimental: as §4

[19] = system: melanoma cells expressing wild-type p53 (A375, 888-Mel, 624-Mel); conditions: melanoma cells A375, 888-Mel, 624-Mel (wild-type p53); cited from earlier work
[20] = orally, 3 times a day at 200 mg/kg or 2 times a day at 500 mg/kg; cited from earlier work
[21] = system: malignant tumors refractory to conventional treatments; conditions: patients with malignant tumors refractory to conventional treatments; cited from earlier work
[22] = system: lung, breast, and B cell cancer; conditions: cited from earlier work
[23] = system: 151 kinases; conditions: cited from earlier work

## Cc1ccc(C(=O)Cn2c3c(sc2=N)CCCC3)cc1 [pifithrin-α]
[1]
  rescue from roscovitine-induced apoptosis: rescues LNCaP cells

## COC[C@H]1OC(=O)c2coc3c2[C@@]1(C)C1=C(C3=O)[C@@H]2CCC(=O)[C@@]2(C)C[C@H]1OC(C)=O [wortmannin]
[2]
  in vivo half-life: short in vivo half-life

## O=c1cc(N2CCOCC2)oc2c(-c3ccccc3)cccc12 [LY, 2-(4-morpholinyl)-8-phenyl-4H-1-benzopyran-4-one]
[3]
  amounts of Bim: increase amounts of Bim
[4]; LNCaP cells, 8 hours, cleavage of caspase-3 substrate PARP, 10 uM LY294002 or 0.5 uM Wortmannin
  PARP cleavage: did not induce any PARP cleavage
[2]
  in vivo half-life: short in vivo half-life
[5]
  apoptotic response: induce a potent apoptotic response
[6]
  cell growth: inhibit cell growth
[7]
  apoptosis of PC3 cells: not
[8]
  cell growth: inhibit cell growth

## CCC(CO)Nc1nc(NCc2ccccc2)c2ncn(C(C)C)c2n1 (stereo not shown) [roscovitine, 2-(1-ethyl-2-hydroxyethylamino)-6-benzylamino-9-isopropylpurine]
[9]
  XIAP expression: reduces XIAP expression
[10]; in vivo
  tissue distribution / tumor uptake: highest tumor uptake
[10]; via oxidative metabolism of the side chain hydroxyl group, excreted in urine
  clearance from plasma: clears slowly
[11]
  Bcl-2 expression: not
[12]
  activity of Cdk7/Cdk9 as measured by phosphorylation of RNA-Pol II: reduced activity
[13]; DU145 and PC3 cells
  apoptosis when supplied with roscovitine and wild-type p53: efficiently apoptose
[13]
  apoptosis: relatively resistant and not
[4]
  PARP cleavage: did not induce any PARP cleavage
  PARP cleavage in the presence as compared with the absence of dominant-negative AKT: enhanced PARP cleavage
  exposure time at which robust PARP cleavage was evident: more than 9 hr
[14]
  p53 abundance: increases p53 abundance
[15]
  apoptosis: readily induces apoptosis
[6]
  cell growth: inhibit cell growth
[16]
  apoptosis: can induce apoptosis; also recorded: readily induces apoptosis
[17]
  XIAP expression / abundance: reduced expression of XIAP
[18]
  Bim abundance: did not alter Bim abundance
[19]
  apoptosis: apoptose; also recorded: readily induces apoptosis
[7]
  apoptosis of PC3 cells: not
[8]
  cell growth: inhibit cell growth
[20]
  toxicity or adverse effects: without any toxicity or adverse effects

## CC[C@H](CO)Nc1nc(NCc2ccccc2)c2ncn(C(C)C)c2n1 [R-roscovitine, 2-(1-R-hydroxymethylpropylamino)-6-benzylamino-9-iso-propylpurine]
[21]
  toxicity, Phase I trial: toxicity at higher doses
  tumor responses, Phase I trial: no objective tumor responses
[22]
  responses, Phase II clinical trials: partial responses lasting more than four months
  toxicity, Phase II clinical trials: limited toxicity
[23]
  binding among 151 kinases examined: bound only its known CDK targets and pyridoxal kinase
